Source: patent US11739194B2, “Glycerol-silicone elastomers as active matrices with controllable release profiles” (Danmarks Tekniske Universitet, priority 2017, dated 2023)

What was measured:
[1] = Hydroquinone release from single compartment glycerol-silicone elastomers immersed in deionized water (UV-vis); type: physicochemical; conditions: hydroquinone alone (single glycerol phase), 80 phr total glycerol concentration
Procedure: The example provided leads to a 1.42 g batch of material that may readily be scaled up or down. Using the described method batches from between 1 g and 80 g were prepared. Hydroquinone (HQ, 0.02 g, 5 wt. %) was dissolved in glycerol (0.4 g) at 50° C. using magnetic stirring until a clear solution was obtained (typically around 1-2 hours). […] Sample nomenclature uses the pattern GX HQY S184 Z, where G and X correspond to glycerol and concentration of glycerol in phr (weight parts per hundred weight parts of silicone elastomer), HQ and Y correspond to hydroquinone and concentration of hydroquinone dissolved in glycerol (expressed as weight percentage of HQ in glycerol) and S184 corresponds to applied silicone composition, respectively. […]
Release profiles of HQ from the glycerol-silicone elastomers were determined by immersing composites containing various amounts of glycerol with 5 wt % of HQ in deionized water. The progress of hydroquinone release was monitored by measuring changes in concentration of hydroquinone in the aqueous environment. A UV-vis spectrophotometer POLARstar Omega microplate reader by BMG LabTech was used for the tests, and outcomes were compared against a calibration curve for hydroquinone/water solutions. […]

[2] = Erythrosine B and hydroquinone release from dual compartment glycerol-silicone elastomer immersed in deionized water (UV-vis); type: physicochemical; conditions: for release kinetics (order): dual compartment elastomer, 80 phr total glycerol concentration
Procedure: For the present experiment two solutions were prepared—glycerol-erythrosine B and glycerol-hydroquinone solutions. Glycerol-erythrosine B solution contained 4 g of glycerol and 0.04 g of erythrosine B. Glycerol-hydroquinone solution contained 4 g of glycerol and 0.2 g of hydroquinone. Single emulsions were prepared as detailed above and were subsequently used to prepare two distinct glycerol-in-silicone emulsions. The glycerol-erythrosine B and glycerol-hydroquinone solutions were each added to 5 g of a silicone prepolymer in respective, separate containers. In this case, Sylgard 184 silicone kit from Dow Corning was applied. The respective mixtures were subsequently speed-mixed for 2 to 5 minutes using a dual asymmetric centrifuge DAC SpeedMixer. To prepare the dual compartment silicone elastomers, the two glycerol-in-silicone emulsions were combined. Desired amounts of each of the emulsions were placed into a speed-mixing cup. The composition was subsequently speed-mixed at low mixing rates (typically between from 500 to 1000 rpm) for around 1 minute in order to uniformly distribute both types of droplets within the silicone matrix. Stable emulsions can be mixed with any given speed. […] After combining and mixing both single emulsions a dual compartment emulsion was obtained. The emulsion contained 10 g of silicone, 4.04 g of glycerol droplets containing erythrosine B and 4.2 g of glycerol droplets containing hydroquinone. The total mass of the emulsion was 18.24 g. In a final step, the elastomer emulsions were cured at 80° C. for 1 hour. Long exposure to high temperatures results in glycerol evaporation therefore prolonged high temperature curing should be avoided. […] Release profiles of erythrosine and hydroquinone from the glycerol-silicone elastomers were determined by immersing composites in deionized water. The progress of release of erythrosine B and hydroquinone was monitored by measuring changes in concentration of both compounds in the aqueous environment. […] Each release profile curve represents an average of three separate experiments. Films with thickness of 0.3 mm were investigated. Such thin films tend to self-adhere therefore they were mounted onto custom-made frames (FIG. 4) to maintain a constant exposed surface area and placed in beakers equipped with magnetic stirring.

Compound: Oc1ccc(O)cc1 [hydroquinone]
- release kinetics (order) [1]: near-zero order release kinetics
- time after which the entire incorporated amount was released ([2]; 0.3 mm thick dual compartment elastomer, 40 phr glycerol with erythrosine B + 40 phr glycerol with hydroquinone): around 6 hours
- share of the total amount released with zero-order kinetics ([2]; 0.3 mm thick dual compartment elastomer, 80 phr glycerol in total): ~80%
- release kinetics (order) [2]: zero-order release kinetics

Compound: erythrosine B
- amount released ([2]; after 28 hours, 0.3 mm thick dual compartment elastomer, 80 phr glycerol in total): 15%
- release kinetics (order) [2]: zero-order kinetics throughout the whole experiment
